Data published in patent publication US20110077237A1, “KINASE INHIBITORS” (VERTEX PHARMACEUTICALS INCORPORATED, priority 2007, published 2011).

Experiments:
PKC delta kinase = PKC delta kinase (Homo sapiens, UniProt Q05655); assay: PKC Delta coupled-enzyme kinase assay; assay type: biochemical; conditions: 46 nM PKC delta, 150 μM ATP, 30° C.; read-out: Ki PKC delta
Protocol: An assay buffer solution was prepared which consisted of 100 mM HEPES (pH 7.5), 10 mM MgCl2, 25 mM NaCl, 0.1 mM EDTA and 0.01% Brij. […] To 16 μL of this enzyme buffer, in a 384 well plate, was added 1 μL of VRT stock solution in DMSO. The mixture was allowed to equilibrate for 10 mins at 30° C. […] Ki values were calculated from initial rate data by non-linear regression using the Prism software package (Prism 4.0a, Graphpad Software, San Diego, Calif.).

PKC alpha kinase = PKC alpha kinase (Homo sapiens, UniProt P17252); assay: PKC Alpha coupled-enzyme kinase assay; assay type: biochemical; conditions: 4.5 nM PKC alpha, 130 μM ATP, 30° C.
Protocol: An assay buffer solution was prepared which consisted of 100 mM HEPES (pH 7.5), 10 mM MgCl2, 25 mM NaCl, 0.1 mM EDTA, 100 μM CaCl2 and 0.01% Brij. […] To 16 μL of this enzyme buffer, in a 384 well plate, was added 1 μL of VRT stock solution in DMSO. The mixture was allowed to equilibrate for 10 mins at 30° C. The enzyme reaction was initiated by the addition of 16 μL stock ATP solution prepared in assay buffer to a final assay concentration of 130 μM. Initial rate data was determined from the rate of change of absorbance at 340 nm (corresponding to stoichiometric consumption of NADH) using a Molecular Devices Spectramax plate reader (Sunnyvale, Calif.) over 15 mins at 30° C. For each Ki determination 12 data points covering the VRT concentration range of 0-20 μM were obtained in duplicate (DMSO stocks were prepared from an initial 10 mM VRT stock with subsequent 1:2 serial dilutions). Ki values were calculated from initial rate data by non-linear regression using the Prism software package (Prism 4.0a, Graphpad Software, San Diego, Calif.).

Sequence of PKC delta kinase (Q05655 whole entry): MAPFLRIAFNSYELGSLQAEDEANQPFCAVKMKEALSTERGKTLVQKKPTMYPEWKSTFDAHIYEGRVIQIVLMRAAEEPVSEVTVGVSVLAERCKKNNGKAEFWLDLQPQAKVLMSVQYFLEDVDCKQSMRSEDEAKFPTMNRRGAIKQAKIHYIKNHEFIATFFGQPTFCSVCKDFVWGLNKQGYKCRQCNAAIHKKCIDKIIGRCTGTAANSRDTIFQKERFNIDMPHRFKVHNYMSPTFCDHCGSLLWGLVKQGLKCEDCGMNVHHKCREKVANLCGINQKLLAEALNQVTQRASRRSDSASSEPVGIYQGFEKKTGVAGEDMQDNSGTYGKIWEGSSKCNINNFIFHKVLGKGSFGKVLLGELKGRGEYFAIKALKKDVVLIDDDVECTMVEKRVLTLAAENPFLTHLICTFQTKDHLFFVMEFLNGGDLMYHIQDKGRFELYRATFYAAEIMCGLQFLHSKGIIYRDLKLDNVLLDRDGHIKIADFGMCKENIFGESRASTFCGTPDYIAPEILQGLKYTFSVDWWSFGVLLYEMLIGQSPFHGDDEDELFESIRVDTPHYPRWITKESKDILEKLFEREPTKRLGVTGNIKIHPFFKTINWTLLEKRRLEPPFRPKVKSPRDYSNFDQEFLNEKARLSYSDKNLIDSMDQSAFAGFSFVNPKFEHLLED

Structure (SMILES) | Ki (PKC delta kinase) | Ki (PKC alpha kinase)
CC(C)[C@H]1CN(c2ccc(C(F)(F)F)c(C(=O)c3cccnc3N)n2)CCN1 [compound 338] | 0.05 to 0.5 µM | 0.5 to 2.8 µM
C=Cc1cnc(N)c(C(=O)c2cccc(N3CCNC(c4ccccc4)C3)n2)c1 (centres unmarked) [compound 241] | 0.05 to 0.5 µM | < 0.05 µM
C=Cc1cnc(N)c(C(=O)c2nc(N3CCNC(c4ccccc4)C3)ccc2C(F)(F)F)c1 (centres unmarked) [compound 328] | 0.05 to 0.5 µM | < 0.05 µM
CC(C)=Cc1cnc(N)c(C(=O)c2cccc(N3CCCNCC3)n2)c1 [compound 246] | 0.05 to 0.5 µM | < 0.05 µM
CC(C)C[C@H]1CN(c2ccc(CC(F)F)c(C(=O)c3cccnc3N)n2)CCN1 [compound 401] | 0.05 to 0.5 µM | 0.5 to 2.8 µM
C=Cc1cnc(N)c(C(=O)c2nc(N3CCNCC3)ccc2Cl)c1 [compound 330] |  | < 0.05 µM
C=Cc1ccc(N2CCNCC2)nc1C(=O)c1cccnc1N [compound 342] | 0.05 to 0.5 µM | 0.5 to 2.8 µM
Cc1ccccc1C1CN(c2cccc(C(=O)c3cccnc3N)n2)CCN1 (centres unmarked) [compound 339] | 0.05 to 0.5 µM | 0.5 to 2.8 µM
C=Cc1cnc(N)c(C(=O)c2cccc(N3CCNCC3)n2)c1 [compound 202] |  | < 0.05 µM
NCCNc1ccc(C(F)(F)F)c(C(=O)c2cccnc2N)n1 [compound 371] | 0.5 to 2.8 µM | 0.5 to 2.8 µM
Nc1ncc(Br)cc1C(=O)c1nc(N2CCNC(c3ccccc3)C2)ccc1C(F)(F)F (centres unmarked) [compound 326] | 0.05 to 0.5 µM | < 0.05 µM
CCc1ccc(N2CCNCC2)nc1C(=O)c1cccnc1N [compound 348] | 0.05 to 0.5 µM | > 2.8 µM
Nc1ncccc1C(=O)c1nc(OCC(N)c2ccccc2)ccc1C(F)(F)F (centres unmarked) [compound 415] |  | < 0.05 µM
Cc1ccc(C2CN(c3cccc(C(=O)c4cccnc4N)n3)CCN2)cc1 (centres unmarked) [compound 336] | 0.5 to 2.8 µM | 0.5 to 2.8 µM
Nc1ncccc1C(=O)c1nc(Cl)cnc1N1CCNCC1 [compound 340] | > 2.8 µM | > 2.8 µM
CC(C)[C@H](N)COc1ccc(C(F)(F)F)c(C(=O)c2cccnc2N)n1 [compound 400] | 0.5 to 2.8 µM | 0.5 to 2.8 µM
Nc1ncccc1C(=O)c1cccc(N2CCNC(c3ccc(Cl)cc3)C2)n1 (centres unmarked) [compound 307] | 0.5 to 2.8 µM | 0.5 to 2.8 µM
CC(C)C[C@H]1CN(c2ccc(Cl)c(C(=O)c3cccnc3N)n2)CCN1 [compound 323] |  | < 0.05 µM
Nc1ncc(Cc2ccccc2)cc1C(=O)c1cccc(N2CCCNCC2)n1 [compound 188] | 0.05 to 0.5 µM | < 0.05 µM
CCCc1ccc(N2CCN[C@@H](CC(C)C)C2)nc1C(=O)c1cccnc1N [compound 385] |  | 0.5 to 2.8 µM
CC(C)C[C@H]1CN(c2ccnc(C(=O)c3cccnc3N)n2)CCN1 [compound 345] | > 2.8 µM | 0.5 to 2.8 µM
CC[C@@H]1CNCCN1c1cccc(C(=O)c2cccnc2N)n1 [compound 243] | 0.05 to 0.5 µM | 0.5 to 2.8 µM
Nc1ncc(Br)cc1C(=O)c1cccc(N2CCNC(c3ccccc3)C2)n1 (centres unmarked) [compound 240] | 0.05 to 0.5 µM | < 0.05 µM

Structure (SMILES) | Ki (PKC delta kinase) | Ki (PKC alpha kinase)
NCCSc1ccc(C(F)(F)F)c(C(=O)c2cccnc2N)n1 [compound 367] | 0.5 to 2.8 µM | 0.5 to 2.8 µM
NCCCNc1ccc(C(F)(F)F)c(C(=O)c2cccnc2N)n1 [compound 372] | 0.5 to 2.8 µM | 0.5 to 2.8 µM
COc1ccc(C2CN(c3cccc(C(=O)c4cccnc4N)n3)CCN2)cc1 (centres unmarked) [compound 310] | 0.05 to 0.5 µM | 0.5 to 2.8 µM
CC(C)C[C@H]1CN(c2ccc(C3CC3)c(C(=O)c3cccnc3N)n2)CCN1 [compound 352] |  | 0.5 to 2.8 µM
Nc1ncccc1C(=O)c1cncc(N2CCCNCC2)n1 [compound 157] | 0.05 to 0.5 µM | 0.5 to 2.8 µM
Nc1ncccc1C(=O)c1nc(NCC2CCCN2)ccc1C(F)(F)F (centres unmarked) [compound 379] | 0.5 to 2.8 µM | 0.5 to 2.8 µM
NCC1CCCN(c2cccc(C(=O)c3cccnc3N)n2)C1 (centres unmarked) [compound 333] | > 2.8 µM | > 2.8 µM
Nc1ncccc1C(=O)c1nc(NCC2CCNC2)ccc1C(F)(F)F (centres unmarked) [compound 377] | 0.05 to 0.5 µM | 0.5 to 2.8 µM
Nc1ncc(CCc2ccccc2)cc1C(=O)c1cccc(N2CCCNCC2)n1 [compound 187] | 0.05 to 0.5 µM | < 0.05 µM
Nc1ncccc1C(=O)c1cncc(N2CCC(N)CC2)n1 [compound 161] | 0.5 to 2.8 µM | 0.5 to 2.8 µM
CC(=O)c1ccc(N2CCN[C@@H](CC(C)C)C2)nc1C(=O)c1cccnc1N [compound 351] | 0.5 to 2.8 µM | > 2.8 µM
CC(C)C[C@H]1CN(c2ccc(Cc3ccccc3)c(C(=O)c3cccnc3N)n2)CCN1 [compound 418] |  | 0.5 to 2.8 µM
Nc1ncccc1C(=O)c1nc(NC[C@@H](N)c2ccccc2)ccc1C(F)(F)F [compound 388] |  | < 0.05 µM
CC(C)[C@H](N)CNc1ccc(C(F)(F)F)c(C(=O)c2cccnc2N)n1 [compound 395] | 0.5 to 2.8 µM | 0.5 to 2.8 µM
Nc1ncccc1C(=O)c1nc(NCC2CCCNC2)ccc1C(F)(F)F (centres unmarked) [compound 387] | 0.05 to 0.5 µM | 0.5 to 2.8 µM
Cc1ccc(N2CCNCC2)nc1C(=O)c1cccnc1N [compound 230] | 0.5 to 2.8 µM | 0.5 to 2.8 µM
Nc1ncccc1C(=O)c1cccc(N2CCNC(CO)C2)n1 (centres unmarked) [compound 303] | 0.05 to 0.5 µM | 0.5 to 2.8 µM
Nc1ncccc1C(=O)c1cccc(N2CCCN(C(=O)c3sccc3Cl)CC2)n1 [compound 92] | 0.5 to 2.8 µM | 0.5 to 2.8 µM
Nc1ncccc1C(=O)c1nc(N2CCNCC2)cnc1Cl [compound 343] | 0.05 to 0.5 µM | 0.5 to 2.8 µM
Nc1ncccc1C(=O)c1cccc(N2CCNC(c3cccc(C(F)(F)F)c3)C2)n1 (centres unmarked) [compound 314] | 0.05 to 0.5 µM | 
Cc1sc(N2CCCNCC2)nc1C(=O)c1cccnc1N [compound 109] | 0.5 to 2.8 µM | 0.5 to 2.8 µM
Nc1ncccc1C(=O)c1nc(N2CCNC(c3ccccc3)C2)ccc1Cl (centres unmarked) [compound 321] | 0.05 to 0.5 µM | 
C[C@H]1CNCCN1c1cccc(C(=O)c2cccnc2N)n1 [compound 228] | 0.05 to 0.5 µM | 

Structure (SMILES) | Ki (PKC delta kinase) | Ki (PKC alpha kinase)
Nc1ncc(-c2cc[nH]c2)cc1C(=O)c1cccc(N2CCCNCC2)n1 [compound 199] | 0.05 to 0.5 µM | 
COc1cccc(-c2cnc(N)c(C(=O)c3cccc(N4CCCNCC4)n3)c2)c1 [compound 181] | 0.05 to 0.5 µM | 
COc1ccccc1-c1cnc(N)c(C(=O)c2cccc(N3CCNC(c4ccccc4)C3)n2)c1 (centres unmarked) [compound 284] | 0.05 to 0.5 µM | 
Nc1ncccc1C(=O)c1nc(N2CCNC(c3ccccc3)C2)ccc1OC(F)F (centres unmarked) [compound 360] | 0.05 to 0.5 µM | 0.5 to 2.8 µM
Nc1ncccc1C(=O)c1nc(N2CCNC(c3ccccc3)C2)ccc1C(F)(F)F (centres unmarked) [compound 317] | 0.05 to 0.5 µM | 
Nc1ncccc1C(=O)c1nccc(N2CCNCC2)n1 [compound 344] | > 2.8 µM | > 2.8 µM
Nc1ncc(Br)cc1C(=O)c1nc(N2CCNCC2)ccc1C(F)(F)F [compound 325] | 0.05 to 0.5 µM | < 0.05 µM
CC1CN(c2cccc(C(=O)c3cccnc3N)n2)C(C)CN1 (centres unmarked) [compound 222] | 0.05 to 0.5 µM | 
Nc1ncc(-c2ccncc2)cc1C(=O)c1cccc(N2CCNC(c3ccccc3)C2)n1 (centres unmarked) [compound 288] | 0.5 to 2.8 µM | 
Nc1ncc(-c2cccc(O)c2)cc1C(=O)c1cccc(N2CCNC(c3ccccc3)C2)n1 (centres unmarked) [compound 260] | 0.05 to 0.5 µM | 
Cc1cccc(C2CN(c3ccc(C(F)(F)F)c(C(=O)c4cccnc4N)n3)CCN2)c1 (centres unmarked) [compound 392] | 0.05 to 0.5 µM | < 0.05 µM
C=Cc1cnc(N)c(C(=O)c2nc(N3CCNC(c4ccccc4)C3)ccc2Cl)c1 (centres unmarked) [compound 332] | 0.05 to 0.5 µM | < 0.05 µM
CC(C)(C)C(=O)N1CCCN(c2cccc(C(=O)c3cccnc3N)n2)CC1 [compound 37] | 0.5 to 2.8 µM | 
CC(F)(F)c1ccc(N2CCNC(c3ccccc3)C2)nc1C(=O)c1cccnc1N (centres unmarked) [compound 355] | 0.05 to 0.5 µM | 0.5 to 2.8 µM
C#Cc1cnc(N)c(C(=O)c2cccc(N3CCCNCC3)n2)c1 [compound 108] |  | < 0.05 µM
Nc1ncccc1C(=O)c1cccc(-c2c[nH]c3ccccc23)n1 [compound 294] | > 2.8 µM | 
C=Cc1cnc(N)c(C(=O)c2nc(N3CCNCC3)ccc2C(F)(F)F)c1 [compound 327] |  | < 0.05 µM
Nc1ncc(-c2cccs2)cc1C(=O)c1cccc(N2CCNC(c3ccccc3)C2)n1 (centres unmarked) [compound 263] | 0.05 to 0.5 µM | 
Nc1ncc(-c2ccc(O)cc2)cc1C(=O)c1cccc(N2CCCNCC2)n1 [compound 171] | 0.05 to 0.5 µM | 
Nc1ncc(-c2ccccc2)cc1C(=O)c1cccc(N2CCNCC2)n1 [compound 206] | 0.05 to 0.5 µM | 
Nc1ncccc1C(=O)c1nc(N2CCNCC2)ccc1Cl [compound 315] | 0.05 to 0.5 µM | 
Nc1ncccc1C(=O)c1nc(N2CCCNCC2)ccc1C(F)(F)F [compound 318] | 0.05 to 0.5 µM | 
CC(C)C[C@H](N)CNc1ccc(C(F)(F)F)c(C(=O)c2cccnc2N)n1 [compound 396] | 0.05 to 0.5 µM | 
